# Assay results published in patent publication US8232253B2, “Treatment of lung cancer” (Ramot at Tel-Aviv University Ltd., priority 2006, dated 2012).
# pIC50: −log10 of the molar value.
# Assays:
# A549 cells = experiment: Cell growth by direct cell counting; format: cell-based; conditions: Homo sapiens, A549, 144 h, cells grown 6 days with FTS, read-out: FTS concentration giving a decrease of 50% in A549 cell growth
# Experimental: FTS was provided by Concordia Pharmaceuticals, Inc. (Ft. Lauderdale, Fla.). All cell lines were obtained from American Type Culture Collection (“ATCC”) (Manassas, Va.). A549 cells, non-small-cell lung carcinoma (CCL, ATCC) cells, were cultured in Kaighn's modification of Ham's F-12 medium containing 1.5 g/l sodium bicarbonate, 10% fetal calf serum (FCS), 100 U/ml penicillin, and 100 μg/ml streptomycin. HTB54 lung carcinoma cells were cultured in McCoy's 5A medium with 10% FCS, 100 U/ml penicillin, and 10 μg/ml streptomycin. […] Cells were treated with the indicated concentrations of FTS (Concordia Pharmaceuticals, Sunrise Fla.) or with 0.1% Me2SO4 (DMSO) (vehicle) 24 h after plating and were counted 5 days later. Dead cells were counted after addition of Hoechst 33258 dye (Sigma-Aldrich, St. Louis, Mo.); 1 μg/ml) to vehicle-treated control cultures or to cultures treated for 24 or 48 h with 75 μM FTS. Fluorescence images were collected 5 min after the dye was added.
# To investigate the effect of FTS on lung cancer cell proliferation, we first incubated A549 cells that harbor the activated K-ras gene mutated at codon 12. […] The number of cells in the FTS-treated cultures was determined by direct counting of A549 cells grown for 6 days in the presence of FTS and was expressed as a percentage of the number recorded in the controls. […]
# K-Ras-GTP = biological target: T1, K-Ras-GTP (Homo sapiens, UniProt P01116, G12S); experiment: K-Ras-GTP GST-RBD pull-down assay and immunoblotting in A549 cells; format: cell-based
# T1 construct: endogenous in cells; host or cells: A549 (ATCC)
# Experimental: (§1) A549 cells were incubated for 24 or 48 h with or without FTS, as described above, and then lysed with lysis buffer as described in Haklai, R., Gana-Weisz, M., Elad, G., et al., Biochemistry 37:1306-14 (1998). The apparent amounts of K-Ras-GTP in 0.5 mg protein of total cell lysates were determined by the glutathione-S-transferase (GST)-RBD (Ras-binding domain of Raf) pull-down assay, as described in (Elad-Sfadia, G., Haklai, R., Ballan, E., Gabius, H. J., Kloog, Y., J Biol Chem 277:37169-75 (2002). The apparent amounts of Rac1-GTP and of RhoA-GTP, each in 2 mg protein of total cell lysates, were determined, respectively, by pull-down assays with GST-PBD (Rac1-binding domain of PAK1)-conjugated and GST-Rhotekin BD (Rho-binding domain of Rhotekin)-conjugated beads [Benard, V., Bohl, B. P., Bokoch, G. M, J Biol Chem 274:13198-204 (1999); Fiordalisi, J. J., Keller, P. J., Cox, A. D., Cancer Res 66:3153-61 (2006). The pulled-down GTPases were subjected to SDS-PAGE followed by immunoblotting with the appropriate antibodies: anti K-Ras (1:30; Calbiochem, La Jolla, Calif.), anti Rac-1 (1:2500; Santa Cruz Biotechnology, Santa Cruz, Calif.), or anti RhoA (1:700; Upstate Biotechnology, Lake Placid, N.Y.). Immunoblots were exposed to 1:2500 peroxidase-goat anti-mouse IgG. Levels of phospho-ERK and phospho-Akt were determined by immunoblotting [Haklai, R., Gana-Weisz, M., Elad, G., et al., supra.] using rabbit anti phospho-ERK1/2 Ab (Santa Cruz Biotechnology, Santa Cruz, Calif.) and rabbit anti phospho-Akt Ab (Cell Signaling, Beverly, Mass.). Protein bands were visualized by enhanced chemiluminescence and quantified by densitometry using ImageJ computer software (National institutes of Health, Bethesda, Md.).
# To determine whether active K-Ras-GTP and its prominent downstream signals to ERK and Akt were inhibited in A549 cells, and if so, whether the […] growth of the cells was also affected, two experiments were performed. First, A549 cells were incubated in the absence and in the presence of various concentrations of FTS and K-Ras-GTP, phospho-ERK and phospho-Akt levels were measured.
# RhoA-GTP = RhoA-GTP pull-down assay in A549 cells; format: cell-based, human
# Experimental: as §1, with “The pulled-down GTPases were subjected to SDS-PAGE followed by immunoblotting with the appropriate antibodies: anti K-Ras (1:30; Calbiochem, La Jolla, Calif.), anti Rac-1 (1:2500; Santa Cruz Biotechnology, Santa Cruz, Calif.), or anti RhoA (1:700; Upstate Biotechnology, Lake Placid, N.Y.). Immunoblots were exposed to 1:2500 peroxidase-goat anti-mouse IgG.” left out, “Md.). […]” for “Md.).”
# T1 sequence (P01116 whole entry G12S): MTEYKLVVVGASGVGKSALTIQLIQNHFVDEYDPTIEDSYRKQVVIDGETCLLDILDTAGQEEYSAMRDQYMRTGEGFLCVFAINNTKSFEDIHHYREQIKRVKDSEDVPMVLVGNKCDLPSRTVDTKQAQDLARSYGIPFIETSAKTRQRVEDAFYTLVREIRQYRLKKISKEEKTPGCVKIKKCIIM
compound,measurement,setting,value
"CC(C)=CCC/C(C)=C/CC/C(C)=C/CSc1ccccc1C(=O)O [FTS, S-farnesylthiosalicylic acid]",pIC50,A549 cells,4.40
same,reduction in K-Ras-GTP (mean±SD),K-Ras-GTP; 25 μM FTS,23±15.3%
same,reduction in K-Ras-GTP (mean±SD),K-Ras-GTP; 50 μM FTS,37±3.7%
same,reduction in K-Ras-GTP (mean±SD),K-Ras-GTP; 75 μM FTS,46±1.9%
same,effective concentration range for the reduction in K-Ras-GTP,K-Ras-GTP; A549 cells,50 to 75 µM
same,effect on the total amount of Ras,"K-Ras-GTP; A549 cells, various FTS concentrations",no significant effect
same,increase in RhoA-GTP,RhoA-GTP,2±0.2 fold
